Read-outs that look alike come from different tables or passages of the source.
Key:
[1] = system: K562 human chronic myelogenous leukemia cell; test: Cell proliferation (MTT) cytotoxicity, K562; format: cell-based; details: K562, 72 h
From the text: (§1) Nine human cancerous cell lines, included human acute monocytic leukemia cell line (THP-1), human chronic myelogenous leukemia cell (K562), human acute lymphoblastic leukemia cell (CEM), human liver cancer cell line (HepG2), human colon cancer cell line (HT-29), human lung cancer cell line (H460), human breast cancer cell line (Hs578), human tongue squamous carcinoma (SAS), and human neuroblastoma cell line (SH—SY5Y) were purchased from the Bioresource Collection and Research Center (BCRC, Taiwan). A normal splenocyte is a primary cell acquired from the mouse spleen as a normal tissue cells to compare with nine cancer cell lines. They were cultured in either RPMI or DMEM (Gibco, CA, U.S.A) based media containing 2 mM L-glutamine, 1 mM sodium pyruvate, 50U/ml penicillin/50 μg/ml streptomycin (Gibco, CA, USA). and 10% fetal bovine serum ([…], HyClone Laboratories Inc., Logan, Utah, USA) at 37° C. with 5% CO2 supplied.
(§2) Cancer cells were seeded into 96-well plate at a starting density 8-10×10^3 cells/well. After overnight culture, [C16,TEGQ-Im]Cl, [C16,TEGQ-Imy)2Au]Cl, and AuNPs-B were added at various concentrations and duration times. Cisplantin of same concentration was added in the same plate as positive control (Sigma-Aldrich, St. Louis, Mo., USA). The proliferation of the cells was measured at 72 h by the MTT method. The cell viability was examined using Ethidium bromide/Acride orange vital stain to exclude the dead cells and normalized the number of living cells to the total counted cells. […] All experiments were performed in triplicate to calculate the experimental averages and standard deviations. […]

[2] = system: HepG2 human liver cancer cell line; test: Cell proliferation (MTT) cytotoxicity, HepG2; format: cell-based; details: HepG2, 72 h
From the text: as §1, §2

[3] = system: HT-29 human colon cancer cell line; test: Cell proliferation (MTT) cytotoxicity, HT-29; format: cell-based; details: HT-29, 72 h
From the text: as §1, §2

[4] = system: H460 human lung cancer cell line; test: Cell proliferation (MTT) cytotoxicity, H460; format: cell-based
From the text: as §1, §2

[5] = system: Hs578T human breast cancer cell line; test: Cell proliferation (MTT) cytotoxicity, Hs578T; format: cell-based; details: 72 h
From the text: as §1, §2

[6] = system: SAS human tongue squamous carcinoma; test: Cell proliferation (MTT) cytotoxicity, SAS; format: cell-based; details: 72 h
From the text: as §1, §2

[7] = system: SH-SY5Y human neuroblastoma cell line; test: Cell proliferation (MTT) cytotoxicity, SH-SY5Y; format: cell-based; details: 72 h
From the text: as §1, §2

[8] = system: splenocyte, primary cell acquired from the mouse spleen; test: Cell proliferation (MTT) cytotoxicity, normal splenocyte; format: cell-based; details: 72 h
From the text: as §1, §2

[9] = system: THP-1 human acute monocytic leukemia cell line; test: Cell proliferation (MTT) cytotoxicity, THP-1; format: cell-based; details: THP-1, 72 h
From the text: as §1
(§3) Cancer cells were seeded into 96-well plate at a starting density 8-10×10^3 cells/well. After overnight culture, [C16,TEGQ-Im]Cl, [C16,TEGQ-Imy)2Au]Cl, and AuNPs-B were added at various concentrations and duration times. […] The proliferation of the cells was measured at 72 h by the MTT method. The cell viability was examined using Ethidium bromide/Acride orange vital stain to exclude the dead cells and normalized the number of living cells to the total counted cells. […]

[10] = system: CEM human acute lymphoblastic leukemia cell; test: Cell proliferation (MTT) cytotoxicity, CEM; format: cell-based; details: 72 h
From the text: as §1, §3

nine cancer cell lines = test: In vitro cytotoxicity across the panel of cancer cell lines; format: cell-based, human
From the text: as §1, §3

Solubility in water = format: physicochemical

Structure (SMILES)	IC50 [1] [µg/mL]	IC50 [2] [µg/mL]	IC50 [3] [µg/mL]	IC50 ([4]; H460, 72 h) [µg/mL]	IC50 [5] [µg/mL]	IC50 [6] [µg/mL]	IC50 [7] [µg/mL]	IC50 [8] [µg/mL]	also measured
N.N.[Cl][Pt][Cl] [Cisplatin, reference compound]	0.61	1.67 ± 0.23	2.45	1.23 ± 0.29	1.73	2.21	0.60	0.71 ± 0.05	–
CCCCCCCCCCCCCCCCn1cc[n+](CCOCCOCCOc2cccc3cccnc23)[c]1[Au-][c]1n(CCOCCOCCOc2cccc3cccnc23)cc[n+]1CCCCCCCCCCCCCCCC.[Cl-] [[(C16,TEGQ-Imy)2Au]Cl]	2.71 ± 0.26	7.47 ± 1.53	29.41 ± 16.89	6.64 ± 1.22	0.66 ± 0.14	0.74 ± 0.03	1.14 ± 0.31	4.06 ± 1.66	IC50 [9]: 3.37 ± 0.74 µg/mL; IC50 [10]: 4.11 ± 0.78 µg/mL; IC50, range over cell lines (nine cancer cell lines; all of the eight cancer cell lines): 2.7 to 29.4 µg/mL; Solubility in water (Solubility in water): relatively poor solubility in water
CCCCCCCCCCCCCCCCn1cc[n+](CCOCCOCCOc2cccc3cccnc23)c1.[Cl-] [[C16,TEGQ-Im]Cl, 3-hexadecyl-1-(2-(2-(2-(quinolin-8-yloxy)ethoxy)ethoxy)ethyl)-imidazolium chloride]	–	–	–	–	–	–	–	–	IC50 ([9]; Homo sapiens, read-out: IC50): 0.37 µg/mL; IC50 ([1]; Homo sapiens, read-out: IC50): 0.22 ± 0.03 µg/mL; IC50 ([10]; Homo sapiens, read-out: IC50): 0.67 ± 0.16 µg/mL; IC50 ([2]; Homo sapiens, read-out: IC50): 1.69 ± 0.14 µg/mL; IC50 ([3]; Homo sapiens, read-out: IC50): 0.88 ± 0.11 µg/mL; IC50 ([4]; Homo sapiens, NCI-H460, 72 h, read-out: IC50): 1.43 ± 0.3 µg/mL; IC50 ([5]; Homo sapiens, Hs-578T, read-out: IC50): 0.39 ± 0.05 µg/mL; IC50 ([6]; Homo sapiens, read-out: IC50): 0.89 ± 0.56 µg/mL; IC50 ([7]; Homo sapiens, read-out: IC50): 0.34 µg/mL; IC50 ([8]; read-out: IC50): 3.18 ± 0.76 µg/mL; IC50 (nine cancer cell lines; Homo sapiens, six cancer cell lines: THP-1, K562, HT-29, Hs578T, SH-SY5Y, SAS, read-out: IC50 values, range over cell lines): 0.22 to 0.89 µg/mL

— patent publication US9855280B2, “Nanoparticles containing azolium and N-heterocyclic carbene compounds and use thereof” (National Dong Hwa University, priority 2015, dated 2018)
